The record followed here is BindingDB's records for doi:10.1021/jm0503244 (Merck Research Laboratories, 2005).

Holding throughout (test): S1P Receptor Binding Assay
Assay [1] concerns the target T1, Sphingosine 1-phosphate receptor 4 (Homo sapiens, UniProt O95977).
T1 sequence (O95977 whole entry): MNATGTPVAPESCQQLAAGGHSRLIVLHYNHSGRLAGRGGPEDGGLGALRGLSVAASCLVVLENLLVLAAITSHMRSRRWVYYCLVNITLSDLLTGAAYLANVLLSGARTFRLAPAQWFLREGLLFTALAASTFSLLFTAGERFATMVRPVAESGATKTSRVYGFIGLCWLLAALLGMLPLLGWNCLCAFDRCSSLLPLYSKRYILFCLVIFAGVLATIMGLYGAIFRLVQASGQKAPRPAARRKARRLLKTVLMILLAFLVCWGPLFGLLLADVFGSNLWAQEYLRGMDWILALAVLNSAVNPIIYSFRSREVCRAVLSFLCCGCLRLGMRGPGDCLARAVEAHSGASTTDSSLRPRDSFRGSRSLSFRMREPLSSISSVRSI
Particulars: 25 °C. The procedure:
(§1) The assay measures the displacement of [33P]-labeled sphingosine-1-phosphate (S1P) by test compounds from human S1P receptors expressed on CHO cell membranes. Binding was performed for 60 min at room temperature and terminated by collecting the membranes onto GF/B filter plates with a Packard Filtermate Universal Harvester. Filter bound radionuclide was measured on a PerkinElmer 1450 MicroBeta. Specific binding was calculated by subtracting radioactivity that remained in the presence of 1000-fold excess of unlabeled S1P.

Assay [2] concerns the target Sphingosine 1-phosphate receptor 5 (Homo sapiens, UniProt Q9H228). The note with it: 25 °C. The procedure:
as §1

Assay [3] has as its target Sphingosine 1-phosphate receptor 3 (Homo sapiens, UniProt Q99500). Particulars: pH 7.5; 22 °C. As for the experimental part:
as §1

The structures appear in SMILES notation.

Sphingosine 1-phosphate receptor 3, sequence (Q99500 whole entry): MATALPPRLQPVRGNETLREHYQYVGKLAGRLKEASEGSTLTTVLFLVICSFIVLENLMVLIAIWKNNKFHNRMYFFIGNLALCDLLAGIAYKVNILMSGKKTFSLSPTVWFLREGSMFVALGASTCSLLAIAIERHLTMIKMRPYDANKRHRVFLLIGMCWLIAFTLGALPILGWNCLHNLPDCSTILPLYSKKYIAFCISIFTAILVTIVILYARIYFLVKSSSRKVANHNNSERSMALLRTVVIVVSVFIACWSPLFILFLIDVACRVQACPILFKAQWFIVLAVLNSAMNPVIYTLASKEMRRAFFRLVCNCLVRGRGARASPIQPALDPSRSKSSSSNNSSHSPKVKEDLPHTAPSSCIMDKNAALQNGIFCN
Sphingosine 1-phosphate receptor 5, sequence (Q9H228 whole entry): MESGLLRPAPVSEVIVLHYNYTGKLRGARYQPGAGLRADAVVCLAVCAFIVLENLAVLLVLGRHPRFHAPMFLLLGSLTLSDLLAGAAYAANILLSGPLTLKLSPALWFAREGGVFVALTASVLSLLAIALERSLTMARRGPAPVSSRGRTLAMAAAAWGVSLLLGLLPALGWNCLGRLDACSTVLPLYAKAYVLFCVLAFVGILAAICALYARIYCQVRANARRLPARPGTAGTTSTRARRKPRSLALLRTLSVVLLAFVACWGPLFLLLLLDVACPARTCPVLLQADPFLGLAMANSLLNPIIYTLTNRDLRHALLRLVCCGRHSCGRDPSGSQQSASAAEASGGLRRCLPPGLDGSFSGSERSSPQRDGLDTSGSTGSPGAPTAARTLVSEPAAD

As to `CCCCc1ccc(-c2nc(-c3ccc(CN4CC(C(=O)O)C4)cc3)no2)cc1` [1-({4-[5-(4-butylphenyl)-1,2,4-oxadiazol-3-yl]phenyl}methyl)azetidine-3-carboxylic acid], the IC50 in assay [1] turned out to be 350 nM; in assay [2], 2.4 nM. The compound `CC(C)(C)Cc1ccc(-c2nc(-c3ccc(CN4CC(C(=O)O)C4)cc3)no2)cc1` [1-[(4-{5-[4-(2,2-dimethylpropyl)phenyl]-1,2,4-oxadiazol-3-yl}phenyl)methyl]azetidine-3-carboxylic acid] came in with a half-inhibitory concentration (IC50) in assay [3] of 10000 nM. In turn, `CCC(C)(C)c1ccc(-c2nc(-c3ccc(CN4CC(C(=O)O)C4)cc3)no2)cc1` [1-[(4-{5-[4-(2-methylbutan-2-yl)phenyl]-1,2,4-oxadiazol-3-yl}phenyl)methyl]azetidine-3-carboxylic acid] yielded an IC50 in assay [3] of 3090 nM.
